Test results from publication PMC12119672, “Development and evaluation of [^11C]DPA-813 and [^18F]DPA-814: novel TSPO PET tracers insensitive to human single nucleotide polymorphism rs6971” (European Journal of Nuclear Medicine and Molecular Imaging, 2025).
Values joined by “and” are separate entries in the source; they are usually repeats but may differ in a detail not shown here. Equal entries are not always repeated.

How the values were obtained:
[1] = system: EAE rat model (spinal cord); test: PET imaging in the EAE rat model; format: in vivo; details: for higher uptake (AUC of time activity curve) in the spinal cord of EAE rats compared to CFA control: dynamic PET 60 min, peak of clinical symptoms
[2] = Ex vivo biodistribution in wild-type rats; parameters: species or system rat; details: i.v.
Description: Wistar/RccHan (WIST) rats from Inotiv, the Netherlands, received intravenous injections via a tail vein catheter of either [^11C]DPA-813 (30–50 MBq) or [^18F]DPA-814 (20–30 MBq). The rats were euthanized at 5, 15, and 45 min post-injection (n = 4 per time point). Blood, heart, lungs, liver, spleen, kidney, urine, bone, brain, duodenum, small intestine, skin, and muscle were collected, weighed, and their radioactivity measured using a Wizard Gamma counter 1470 or 2480 (Wallac/PerkinElmer, Waltham, MA, USA). Entire organs were collected, except for larger organs like the liver and lungs, where only a portion was dissected. The radioactivity uptake in each organ was expressed as the percentage of the injected dose per gram of tissue (%ID/g).

rat TSPO = target: T1, rat TSPO (Rattus norvegicus, UniProt P16257); test: Competitive binding to rat TSPO vs [3H]PK 11195 (Eurofins assay #226700, rat heart membranes); details: vs DPA-713 / DPA-714
T1 construct: Heart of male Wistar derived rats weighing 175 ± 25 g are used to prepare peripheral benzodiazepine membrane receptors [TSPO]; tissue Eurofins Panlabs Discovery Services assay #226700; host or cells: rat heart (male Wistar derived)
Description: Binding affinities (Ki) to wild-type (WT) and A147T human TSPO were assessed using a previously published method. HEK-293T cells were stably transfected with WT and A147T TSPO. Membranes were isolated from each cell line using an Ultra-Turrax hand-held homogeniser. These cells have been previously validated as an in vitro model for low- and high-affinity TSPO binding. […] Non-specific binding was determined using a saturating concentration (1 µM) of non-tritiated PK 11195. This non-specific binding contributed less than 10% of total binding. Reactions were halted by filtering through a 96-well glass-fibre filter plate (Millipore), followed by eight washes with ice-cold 50 mM Tris HCl. Microscint 0 was added to the plate and resultant radioactivity-related photons were collected by a Microbeta 2450 (PerkinElmer). Ki values were fit to a competition binding curve fit on non-specific binding-corrected data using GraphPad Prism 10.0 (GraphPad). Results are presented as mean ± standard error of the mean (SEM) from at least three independent experiments. Binding affinities (Ki) to rat TSPO were measured in duplicate by Eurofins Panlabs Discovery Services (assay #226700) (Supplementary Fig. 12). Single-dose (10 µM) off-target in vitro screening was performed in duplicate by Eurofins Panlabs Discovery Services (Supplementary Table 5).
Supplementary Figure 12 Dose-response curves and binding affinities of DPA-813 and DPA-814 showing competitive binding to rat TSPO vs [^3H]PK 11195. Method from Eurofins: Heart of male Wistar derived rats weighing 175 ± 25 g are used to prepare peripheral benzodiazepine membrane receptors [TSPO] in modified Tris-HCl buffer pH 7.5. A 0.25 mg aliquot is incubated with 0.3 nM [^3H]PK 11195 for 15 minutes at 25 °C. Non-specific binding is estimated in the presence of 100 μM Dipyridamole. Membranes are filtered and washed, the filters are then counted to determine [^3H]PK 11195 specifically bound.

TSPO in human MS tissues = test: Autoradiography on genotyped human MS brain tissue (HAB, MAB, LAB); format: binding
Source text: Brain tissues from MS patients (n = 7) were used in this study and were obtained from the MS centre of the Amsterdam University Medical Centers (AUMC). For some patient material, several brain tissues were available. The MS centre received permission from the Ethical Committee of the AUMC (Amsterdam, The Netherlands) to perform autopsies for tissue use and access to medical records for research purposes. All patients and controls, or their next of kin, had given informed consent for autopsy and use of brain tissue for research purposes.
TSPO rs6971 SNP was determined with a Taqman assay (C_2512465_20, ThermoFisher Scientific, The Netherlands). DNA was isolated from human MS brain tissue cryosections using a QIAmp mini kit from Qiagen according to the manufacturer’s recommendation. The concentration of the isolated DNA was determined on a nanodrop (NanoVue Plus, Biochrom). DNA concentration ranged from 45 to 246 µg/mL. QPCR was performed on a QuantStudio (Applied Biosystems, The Netherlands). Synthetic DNA (300 bp) for the two TSPO SNP alleles, rs6971-A, and rs6971-G, was used as a control for the Taqman assay. DNA samples were diluted 1/100 in milliQ water, and 4.5 µL was used for the QPCR. Control DNA sequences were reconstituted in 10 ng/mL in milliQ water. The final QPCR solution contained 5 µL TaqPath proAmp master mix (ThermoFisher Scientific, The Netherlands), 0.5 µL Taqman SNP, and 4.5 µL DNA. Results of the Taqman assay are summarised in Supplementary Tables 4 and Supplementary Fig. 2.
Human MS tissue cryosections (20 μm) were mounted on glass slides, air-dried, and stored at − 80 °C until needed. Prior to use, the sections were washed three times in PBS for 5 min each, then dried under an airflow. […] For blocking experiments, tissue sections were co-incubated with PK 11195 (10 µM) and the tracer. After incubation, sections were washed for 90 s three times each in ice-cold PBS and then dipped in deionized water twice. The sections were air-dried and exposed to a phosphor screen BAS-IP SR 2025 (General Electric, Eindhoven, The Netherlands). Phosphor screens were subsequently imaged using a Typhoon FLA 7000 imager (General Electric, Eindhoven, The Netherlands), and signal intensity was quantified using ImageLab software (BioRad, Lunteren, The Netherlands).

[3] = Ex vivo metabolite analysis (plasma and brain) in wild-type rats; parameters: species or system rat; details: i.v.
Description: Metabolite analysis was conducted following the method outlined in a previous study. Wistar/RccHan (WIST) rats (Inotiv, the Netherlands) received intravenous injections of either [^11C]DPA-813 (30–50 MBq) or [^18F]DPA-814 (20–30 MBq). Rats were euthanized at 5, 15, and 45 min post-injection (n = 4 per time point). Plasma was separated from blood then processed through a C18 Sep-Pak (Waters, Milford, MA, USA). After washing with 3 mL of water to isolate the polar fraction, the non-polar fraction was eluted using 2 mL of methanol and 1 mL of water and subsequently analyzed by HPLC. The brain tissue was collected and homogenized in a mixture of MeCN and H2O (50/50, 4 mL) before centrifugation (5 min, 4000 rpm, 20 °C, Hettich Universal 32). The obtained supernatant was separated from the precipitate and analyzed via HPLC. Analytical HPLC was performed using a Dionex UltiMate 3000 HPLC system equipped with Chromeleon software (version 6.8), utilizing a Gemini C18 5-µm (10 × 250 mm) column (Phenomenex, Torrance, CA, USA). All fractions were assessed for radioactivity using a Wizard Gamma counter 1470 or 2480 (Wallac/PerkinElmer, Waltham, MA, USA).

CCN(CC)C(=O)Cc1c(-c2ccc(O[11CH3])cc2)nn2c(C)cc(C)nc12 [[^11C]DPA-713, reference compound]
higher difference EAE vs control compared with the fluorinated compound ([1]; [11C]DPA-813 vs [18F]DPA-814, [11C]DPA-713 vs [18F]DPA-714): 2.5 folds | higher uptake (AUC of time activity curve) in the spinal cord of EAE rats compared to CFA control [1]: 67%

Cc1cc(C)n2nc(-c3ccc(OCC[18F])cc3)c(CC(=O)N(C)c3ccccc3)c2n1 [[^18F]DPA-814]
Biodistribution, Blood ([2]; 5 min post-injection): 0.41 ± 0.2 %ID/g | Biodistribution, Bone ([2]; 5 min post-injection): 0.27±0.1 %ID/g | Biodistribution, Brain ([2]; 5 min post-injection): 0.25 ± 0.03 %ID/g | Biodistribution, Duodenum ([2]; 5 min post-injection): 1.44±0.1 %ID/g | Biodistribution, Heart ([2]; 5 min post-injection): 3.31±0.3 %ID/g | Biodistribution, Kidney ([2]; 5 min post-injection): 3.81±0.5 %ID/g | Biodistribution, Liver ([2]; 5 min post-injection): 1.82±0.5 %ID/g | Biodistribution, Lungs ([2]; 5 min post-injection): 21.91±1. %ID/g | Biodistribution, Skin ([2]; 5 min post-injection): 0.09±0.0 %ID/g | Biodistribution, Small intestine ([2]; 5 min post-injection): 0.92±0.1 %ID/g | Biodistribution, Tail ([2]; 5 min post-injection): 6.89±9.8 %ID/g | Biodistribution, Urine ([2]; 5 min post-injection): 0.01±0.0 %ID/g | Biodistribution, muscle ([2]; 5 min post-injection): 0.05±0.0 %ID/g | Biodistribution, spleen ([2]; 5 min post-injection): 3.00±0.6 %ID/g | Biodistribution, Blood ([2]; 15 min post-injection): 0.31±0.1 %ID/g | Biodistribution, Bone ([2]; 15 min post-injection): 0.29±0.1 %ID/g | Biodistribution, Brain ([2]; 15 min post-injection): 0.28±0.0 %ID/g | Biodistribution, Duodenum ([2]; 15 min post-injection): 1.71±0.2 %ID/g | Biodistribution, Heart ([2]; 15 min post-injection): 4.39±0.2 %ID/g | Biodistribution, Kidney ([2]; 15 min post-injection): 4.59±0.6 %ID/g | Biodistribution, Liver ([2]; 15 min post-injection): 2.56 ± 0.2 %ID/g | Biodistribution, Lungs ([2]; 15 min post-injection): 24.43±2. %ID/g | Biodistribution, Skin ([2]; 15 min post-injection): 0.12±0.1 %ID/g | Biodistribution, Small intestine ([2]; 15 min post-injection): 1.26±0.1 %ID/g | Biodistribution, Tail ([2]; 15 min post-injection): 0.70±0.2 %ID/g | Biodistribution, Urine ([2]; 15 min post-injection): 0.01±0.0 %ID/g | Biodistribution, muscle ([2]; 15 min post-injection): 0.07±0.0 %ID/g | Biodistribution, spleen ([2]; 15 min post-injection): 4.85±0.2 %ID/g | Biodistribution, Blood ([2]; 45 min post-injection): 0.15 ± 0.01 %ID/g | Biodistribution, Bone ([2]; 45 min post-injection): 0.22±0.0 %ID/g | Biodistribution, Brain ([2]; 45 min post-injection): 0.20 ± 0.02 %ID/g | Biodistribution, Duodenum ([2]; 45 min post-injection): 1.43±0.1 %ID/g | Biodistribution, Heart ([2]; 45 min post-injection): 4.05±0.3 %ID/g | Biodistribution, Kidney ([2]; 45 min post-injection): 4.10±0.2 %ID/g | Biodistribution, Liver ([2]; 45 min post-injection): 1.97±0.4 %ID/g | Biodistribution, Lungs ([2]; 45 min post-injection): 18.05±3. %ID/g | Biodistribution, Skin ([2]; 45 min post-injection): 0.12±0.0 %ID/g | Biodistribution, Small intestine ([2]; 45 min post-injection): 1.23±0.2 %ID/g | Biodistribution, Tail ([2]; 45 min post-injection): 1.30±0.5 %ID/g | Biodistribution, Urine ([2]; 45 min post-injection): 0.08±0.1 %ID/g | Biodistribution, muscle ([2]; 45 min post-injection): 0.08±0.0 %ID/g | Biodistribution, spleen ([2]; 45 min post-injection): 5.45±1.6 %ID/g | higher affinity to rat TSPO compared to the parent compound (rat TSPO): 35 fold | higher uptake (AUC of time activity curve) in the spinal cord of EAE rats compared to CFA control [1]: 21% | ratio of the binding quantifications [18F]DPA-814/[18F]DPA-714 (TSPO in human MS tissues; HAB human MS tissue): 0.9 ± 0.1 | ratio of the binding quantifications [18F]DPA-814/[18F]DPA-714 (TSPO in human MS tissues; LAB human MS tissue): 12.3 and 12 | ratio of the binding quantifications [18F]DPA-814/[18F]DPA-714 (TSPO in human MS tissues; MAB human MS tissue): 1.5 ± 0.2 | Brain, Parent (intact tracer) ([3]; 5 min post-injection): 99.5 ± 0.2% | Plasma, Parent (Intact tracer) ([3]; 5 min post-injection): 88.1 ± 8.5% | Brain, Parent (intact tracer) ([3]; 15 min post-injection): 99.5 ± 0.3% | Plasma, Parent (Intact tracer) ([3]; 15 min post-injection): 89.4 ± 0.9% | Brain, Parent (intact tracer) ([3]; 45 min post-injection): 99.3 ± 0.3% | Plasma, Parent (Intact tracer) ([3]; 45 min post-injection): 79.1 ± 6.6% and 79%

CCN(CC)C(=O)Cc1c(-c2ccc(OCC[18F])cc2)nn2c(C)cc(C)nc12 [[^18F]DPA-714, reference compound]
higher uptake (AUC of time activity curve) in the spinal cord of EAE rats compared to CFA control [1]: 27%
